Data on two molecules can be found in patent US12083111B2, “Use of hexokinase 2/mitochondria-detaching compounds for activating immune responses” (Vidac Pharma Ltd., priority 2016, dated 2024).

SMILES strings stand for the structures.

Series [1] relates to primary Balb/C mouse splenocytes (CD8+ T cells). Nature of the series: Activated primary splenocytes: FACS for CD44, CD62L and live cells. Type of series: cell-based. Here is the method:
FIGS. 7A-F. Formula C administration shifts effector CD8+ T cells to central memory cells. Primary Balb/C mouse splenocytes were grown in culture and activated by anti-CD3e and anti CD28 antibodies to shift them towards CD8+/CD4+ phenotype. Cells were then treated with Formula C (FIG. 7E), 2-DG (2-deoxyglucose, positive control) (FIG. 7C), or vehicle (FIG. 7B, FIG. 7D) for 24 hours followed by FACS analysis for CD44 and CD62L.
Spleens from the 2 BALB/C female mice (8.5 weeks old) were injected with cold PBS in a […] to obtain cell suspension, using a 27 g needle. The spleens were then crushed using the back of a 10 ml syringe. The suspension was passed through a 21 g needle and filtered using a 70 um cells strainer. The plate was washed once with 10 ml PBS and the solution was filtered as well. Cells were centrifuged for 10 min at 1200 rpm, 4° C. The pellet was broken on the grill and re-suspended in 10 ml AKC X1 lysis buffer (1:10 dilution of X10 stock in Ultra-Pure Water). After 5 min on ice, PBS was added to a final volume of 50 ml, and cells were centrifuged for 10 min at 1200 rpm, 4° C. Pellet was re-suspended in 10 ml PBS and washed twice. After washing, pellet was re-suspended in 20 ml DCs medium and passed through a 40 μm cell strainer. Cells were suspended to 3×10^6 ml with DC medium and supplemented with 1:1000 (100 Units/ml) hIL-2 and 1:1000 (1 ug/ml) anti-CD28.
The cells were seeded 1 ml/well in a 24-well plate precoated with 5 μg/ml 250 μl/well of anti-CD3e and carefully washed twice with 0.5 ml PBS (−/−), cells were added on the side of the wells to avoid washing away the antibody.
Splenocytes were plated at 10^6 cells/well in a 24-well plate coated with 5 μg/ml anti-CD3e with soluble anti CD28 2 μg/ml and IL-2 100 units/ml. […]
On the following day, cells were stained with: ghost dye 1 ul/sample (live/dead), and the following antibodies: CD62L, CD44, CD3, CD4, CD8 and analyzed by fluorescence-activated cell sorting (FACS).

In series [2] the test system is macrophages in CT26 tumors. Nature of the series: FACS of CT26 tumors for macrophage markers MHCII and CD206 (M2 to M1 shift). Type of series: in vivo, mouse. The note with it: 150 mg/kg, day 20. The protocol:
FIG. 6B. Formula C administration shifts macrophages in vivo from pro-tumor (M2) macrophages to antitumor (M1) macrophages. CT26 tumors from Formula C or vehicle-treated Balb/C mice with CT26 mouse colorectal cancer was analyzed for MHCII marker by FACS. Dark color: Vehicle treated CT26 tumors from Balb/C mice (day 20). Light color: Formula C (150 mg/kg) treated CT26 tumors from Balb/C mice (day 20).
FIG. 6C. Formula C administration shifts macrophages in vivo from pro-tumor (M2) macrophages to antitumor (M1) macrophages. CT26 tumors from Formula C or vehicle-treated Balb/C mice with CT26 mouse colorectal cancer was analyzed for CD206. Dark color: Vehicle treated CT26 tumors from Balb/C mice (day 20). Light color: Formula C (150 mg/kg) treated CT26 tumors from Balb/C mice (day 20).
(§1) Colorectal cancer was induced in Balb/C mice using CT26 mouse colorectal cancer cells. Formula C was administered SC with esterase-inhibitor BNPP (IP).
Pro-tumor M2 Macrophages are characterized by low MHCII and high CD206. In contrast, anti-tumor M1 Macrophages are characterized by high MHCII and low CD206. CT26 tumors from Formula C or vehicle-treated Balb/C mice with CT26 mouse colorectal cancer were analyzed for MHCII (FIG. 6B) and CD206 (FIG. 6C) levels 20 days after treatment started.

Series [3] relates to THP-1 human monocytes differentiated to macrophages. In words: IL-1β secretion from LPS-stimulated THP-1-derived macrophages (ELISA). Type of series: cell-based. The settings on record: PMA-differentiated, ELISA of culture medium. The protocol: FIG. 4. Formula C stimulates IL-1β secretion in activated human macrophages in vitro. THP-1 human monocytes were differentiated to mature macrophages and stimulated with LPS (Lipopolysaccharide) followed by Formula C treatment. Secreted IL-1β was analyzed in the culture medium by ELISA.
The human monocyte cell line, THP-1, was grown in 10% FCS in RPMI medium. Cells were plated in 24 well plate, 5*10^6 cells/well and were differentiated to macrophages in the presence of 0.5 uM PMA (phorbol 12-myristate 13-acetate) for 24 hr. Media was replaced to contain LPS (10 ug/mL), 24 hr stimulation. ATP was added for 2 hours. Supernatants were collected and assayed by ELISA for the presence of IL-1β.
For orientation: ELISA stands for enzyme-linked immunosorbent assay.

The subject of series [4] is mouse bone marrow-derived macrophages (BMDM). In words: IL-1β secretion and viability in primary bone marrow-derived macrophages. The settings on record: BALB/C or C57BL BMDM. Type of series: cell-based. Here is the method:
BALB/C mouse bone marrow-derived macrophages (BMDM) or C57BL mouse bone marrow-derived macrophages were seeded at 3×10^4 cells/well in 96 well plates. The following day, cells were stimulated with interferon-gamma (IFNγ) overnight 50 ng/ml. Then Ultra-pure LPS (100 ng/ml) was added for 4 hours, followed by compound treatment for overnight, except for ATP (all compounds were added on top); ATP for 40 min. ELISA was performed on supernatants for mouse IL-1β detection. ATP and 2-DG were used as positive controls. No signal without IFN-γ even when seeded at 100,000 cells per well.

Another series deals with B16-F10 melanoma cells. Nature of the series: Topical treatment in the mouse B16-F10 melanoma model: tumor volume. Type of series: in vivo. The note with it: 50% v/v in olive oil. The protocol:
Mouse melanoma (B16-F10) cells were used. Mouse B16-F10 melanoma cells were maintained in DMEM. Media was supplemented with 10% heat-inactivated FCS, penicillin (100 U/ml), streptomycin (100 μg/ml), Sodium pyruvate (2 mM), and L-glutamine (4 mM). Confluent cultures were washed with PBS, detached with trypsin (0.25%), centrifuged, and subcultured in 96-well microtiter test plates.
(§2) Female C57Bl/6 mice at 8 weeks of age were purchased from Harlan, Jerusalem, Israel. The animals were housed (6 or 7/cage) under controlled conditions (temperature, light, humidity) and given food and water ad libitum. After 14 days of acclimatization, the animals were inoculated with 0.25*10^6 B16-F10 melanoma cells/mouse in 30 μl PBS under the skin of the right ear of each mouse.
(§3) The mice were inoculated with B16-F10 melanoma cells and divided randomly into […] (9 mice each): a) B16-F10 inoculated, untreated; and b) B16-F10 inoculated, Formula C (50% v/v in olive oil) treated
(§4) The treatment was initiated when the tumors reached the target volume of approximately 1 mm^3. Drug was topically administered to the area of the tumor daily for 18 days.

The subject of series [5] is CT26 mouse colorectal cancer cells. In words: CT26 syngeneic colorectal cancer model: tumor volume. Type of series: in vivo. The settings on record: Balb/C mice, SC with esterase-inhibitor BNPP (IP). Here is the method: as §1
The next series deals with B16-F10 melanoma mice. In words: Ear inflammation score in the mouse B16-F10 melanoma model. Type of series: in vivo. The settings on record: scale 0-4, topical. Here is the method:
as §2, §3, §4
Inflammation was graded on a scale of 0-4 as: 0 (absence of inflammation), 1 (redness), 2 (tissue inflammation), 3 (pronounced tissue inflammation), and 4 (damage to the ear).

The test system of series [6] is skin of UVB-exposed SKH-1 mice. Nature of the series: UVB-exposed SKH-1 mouse AK/cSCC model: histology and IHC of immune cells in skin. Type of series: in vivo. Here is the method: The formulation ingredients for vehicle, 2.5%, and 5% Formula C ointment consisted of: 32% Gelucire44/14® (Gattefossé, Saint-Priest, France), and 68% combined Labrasol® (Gattefossé, Saint-Priest, France) with corresponding amount of Formula C (w/w). New ointments were prepared every 2 weeks. The 40% topical solution was prepared just prior to use by mixing (w/w) 60% propylene glycol (Sigma, St. Louis, MO, USA) with 40% Formula C.
UVB-induced skin damage was adopted from previous publications. Forty-eight SKH-1 hairless female mice were chronically exposed to 1.25 times the Minimal Erythemal Dose (MED) of UVB radiation. Lamp VL-6.M was used, irradiating at 312 nm with an intensity of 0.89 mW/cm2 (validated on Day 44) at a distance of 15 cm. Determination of UVB irradiation Minimal Erythemal Dose (MED) was performed prior to the beginning of the study. Animals were UVB irradiated for different duration (starting at 30 sec) and the presence of erythema was recorded 24 and 48 hours later. 1.25 times the MED of UVB irradiation was established to be equal to an exposure time of 5 min. Mice were UVB irradiated for 4-5 min at each irradiation session during the 16 weeks of pre-treatment disease induction. Prior to every irradiation session, the lamp was turned on for 5 min to ensure it reaches its maximal intensity. The irradiation schedule was five times a week for two weeks, one week off, and then three times a week through week 16. By that time, more than 60% of the animals had developed at least one SCC lesion. Three days after the final irradiation dose, the mice were randomly assigned to 1 of 4 treatment groups (N=12 mice/group), with similar tumor burden distribution between groups, and a 50-day treatment phase started. The 6 cm^2 (2×3 cm) treatment area was marked on the back of the mice with a black eight points rectangle tattoo. Five spare mice with the highest tumor burden were excluded from the main study. Treatment groups included: vehicle, 2.5% or 5% Formula C ointment, 50 μl of which was applied once-daily for 50 days, or 50 μl of 40% Formula C topical solution applied once-daily for the first 5 days of every three-week cycle (total of three treatment cycles). Following administration, each animal was placed in individual cage without bedding for 1.5 hours, until the ointment was absorbed.
Histopathological analysis and IHC was performed according to standard protocols. Primary antibodies used: Rabbit anti-CD3 (SP7), rabbit anti-F4/80 (SB-M3072, SB-M4152, Nordic Biosite, Täby, Sweden), mouse anti-Langerin/CD207 (DDX0361, Dendritics, Lyon, France). A polymer system was used as a secondary antibody (KDB-10046 and KDB-10007, Nordic Biosite, Täby, Sweden). Semi-quantitative analysis was done in a blinded manner by a single experienced pathologist scoring ×40 high power fields, 7 different fields per slide.
Statistical analysis was carried out using Graphpad Prism version 5.03 (Graphpad Software, San Diego, CA).

[7] abbreviates: high dose (40%) group, trending also at lower doses.
Where [8] appears, read: topical 2.5%, 5% ointment or 40% solution, 50-day treatment phase.

For `CC/C=C\CC1C(=O)CCC1CC(=O)Oc1cccc2cccnc12` (stereo not drawn) [Formula C], the “CD44 and CD62L expression (shift from effector to memory cells) versus vehicle-treated” value in series [1] (anti-CD3e/anti-CD28 stimulated splenocytes, 24 hours treatment) was “higher CD44 and higher CD62L expression”. For the same molecule, in series [1] (female, BALB/c, mouse, 24 h), the “percentage of live cells” value was “Neither Formula C nor 2-DG treatment significantly affected the percentage of live cells”. Besides, in series [2], the “CD206 levels versus vehicle-treated” value is listed as “lower CD206 levels” and the “MHCII levels versus vehicle-treated” value is “higher MHCII levels”. The IL-1β secretion result in series [3] was “induced IL-1β secretion”. The IL-1β secretion entry in series [4] (IFNγ then LPS, compound overnight, ELISA) is “dose-dependently elicited IL-1β secretion”. Further, the cell viability entry in series [4] (even at high dosage) is recorded as “little effect on cell viability”. Besides, in the series with B16-F10 melanoma cells (topical daily for 18 days, after day 11), the “tumor volume compared with untreated group” value is recorded as “significantly lower than the tumor volume in the untreated group”. The tumor growth entry with B16-F10 melanoma cells (topical daily, C57Bl/6 mice, right ear, first 11 days) is on record as “no tumor growth for 11 days”. Further, in series [5], the tumor volume entry is listed as “decreased tumor volume”. In the series on B16-F10 melanoma mice (before the 18th day of treatment), the average inflammation score result is recorded as “over 3”. In the series with B16-F10 melanoma mice (by about the 15th day of treatment), the average inflammation score result is “about 3”. Also, in series [6] (setting [7]), the “CD3+ T cells in skin versus vehicle-treated” value is “statistically-significant increase” and the “Langerin+ dendritic cells in skin versus vehicle-treated” value is on record as “statistically-significant increase”. In series [6] (setting [8]), the “mast cells in skin (toluidine blue) versus vehicle-treated” value is given as “statistically significant, dose-related increase” and the “overall inflammation (H&E staining) versus vehicle-treated” value is on record as “without apparent difference”. In addition, in series [6] (topical, 50-day treatment phase, data not shown), the “F4/80 general staining for macrophages” value was “no change”.
Consider `O=CC[C@@H](O)[C@H](O)[C@H](O)CO` [Formula 2-DG, 2-deoxyglucose, reference compound], for which the “percentage of live cells” value in series [1] (stimulated splenocytes, 24 hours treatment, ghost dye) was “Neither Formula C nor 2-DG treatment significantly affected the percentage of live cells”.
